Experimental data reported in patent publication US12723063B2, “GIPR-agonist compounds” (Eli Lilly and Company, priority 2019, dated 2026).
*1 amine or outer side, *2 acyl side, *3 side chain or, on linkers, in order; H or OH if unused. Where a SMILES comes first, the peptide text is derived from it. Side-chain parts run from the residue outwards. [ ]: non-standard residue; d: D form. The star is where a group is joined. C20 diacid = O=C(O)CCCCCCCCCCCCCCCCCCC(=O)*; C18 diacid = O=C(O)CCCCCCCCCCCCCCCCC(=O)*; αMePhe(2-F) = C[C@](N)(Cc1ccccc1F)C(=O)O; γGlu = O=C(O)[C@H](CCC(=O)[*:2])N[*:1]; 4Pal = N[C@@H](Cc1ccncc1)C(=O)O; αMeL = CC(C)C[C@](C)(N)C(=O)O; Iva = CC[C@](C)(N)C(=O)O; Orn = NCCC[C@H](N)C(=O)O; AEEA = NCCOCCOCC(=O)O; Aib = CC(C)(N)C(=O)O

Target: T1, human GcgR (Homo sapiens, UniProt P47871)
T1 construct: expressed in transfected cells; crude membranes
T1 sequence (P47871 26-477): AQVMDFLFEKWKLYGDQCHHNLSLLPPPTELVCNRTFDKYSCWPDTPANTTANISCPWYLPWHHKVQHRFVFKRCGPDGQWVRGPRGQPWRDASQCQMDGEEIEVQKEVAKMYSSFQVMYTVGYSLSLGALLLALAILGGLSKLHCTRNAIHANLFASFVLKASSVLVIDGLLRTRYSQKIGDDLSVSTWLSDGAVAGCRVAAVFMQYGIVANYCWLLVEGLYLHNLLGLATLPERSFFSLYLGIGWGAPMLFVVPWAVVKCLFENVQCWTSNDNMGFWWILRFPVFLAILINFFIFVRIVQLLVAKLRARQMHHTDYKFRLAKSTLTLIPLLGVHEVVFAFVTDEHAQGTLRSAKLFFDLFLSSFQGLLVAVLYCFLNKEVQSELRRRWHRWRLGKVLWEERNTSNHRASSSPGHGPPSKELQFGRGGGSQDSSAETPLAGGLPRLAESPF
Assay: [125I]-Glucagon binding, SPA with WGA beads, 0.1% bacitracin
Conditions: geometric mean, read-out: hGcgR Ki
Outline: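 SPA competition binding with WGA beads on crude membranes from HEK293 cells stably expressing hGcgR. Buffer: 25 mM HEPES pH 7.4, 2.5 mM CaCl2, 1 mM MgCl2, 0.1% bacitracin, 0.003% Tween-20; 10-point 3-fold dilutions, NSB with 1 μM Gcg.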

SMILES	Ki [nM]
CC[C@H](C)[C@H](NC(=O)[C@H](CO)NC(=O)[C@H](Cc1ccc(O)cc1)NC(=O)[C@H](CC(=O)O)NC(=O)[C@H](CO)NC(=O)[C@@H](NC(=O)[C@](C)(CC)NC(=O)[C@@H](NC(=O)CNC(=O)[C@H](CCC(=O)O)NC(=O)C(C)(C)NC(=O)[C@@H](N)Cc1ccc(O)cc1)[C@@H](C)O)[C@@H](C)CC)C(=O)N[C@@](C)(CC(C)C)C(=O)N[C@@H](CC(C)C)C(=O)N[C@@H](CC(=O)O)C(=O)N[C@@H](CCCCN)C(=O)N[C@@H](CCCCNC(=O)COCCOCCNC(=O)COCCOCCNC(=O)CC[C@H](NC(=O)CCCCCCCCCCCCCCCCCCC(=O)O)C(=O)O)C(=O)N[C@@H](Cc1c[nH]cn1)C(=O)N[C@@H](CCC(N)=O)C(=O)NC(C)(C)C(=O)N[C@@H](CC(=O)O)C(=O)N[C@@H](Cc1ccccc1)C(=O)N[C@H](C(=O)N[C@@H](CCC(=O)O)C(=O)N[C@@H](Cc1ccncc1)C(=O)N[C@@H](CC(C)C)C(=O)N[C@@H](CC(C)C)C(=O)N[C@@H](CCC(=O)O)C(=O)N[C@@H](C)C(=O)NCC(=O)N1CCC[C@H]1C(=O)N[C@@H](CO)C(=O)N[C@@H](CO)C(=O)NCC(=O)N[C@@H](C)C(=O)N1CCC[C@H]1C(=O)N1CCC[C@H]1C(=O)N1CCC[C@H]1C(=O)N[C@@H](CO)C(N)=O)C(C)C [Example 88] (H-Y[Aib]EGT[Iva]ISDYSI[αMeL]LDKK([AEEA-AEEA-γGlu-C20 diacid])HQ[Aib]DFVE[4Pal]LLEAGPSSGAPPPS-NH2)	788
CC[C@H](C)[C@H](NC(=O)[C@H](CO)NC(=O)[C@H](Cc1ccc(O)cc1)NC(=O)[C@H](CC(=O)O)NC(=O)[C@H](CO)NC(=O)[C@@H](NC(=O)[C@](C)(Cc1ccccc1F)NC(=O)[C@@H](NC(=O)CNC(=O)[C@H](CCC(=O)O)NC(=O)C(C)(C)NC(=O)[C@@H](N)Cc1ccc(O)cc1)[C@@H](C)O)[C@@H](C)CC)C(=O)N[C@@H](C)C(=O)N[C@@H](CC(C)C)C(=O)N[C@@H](CC(=O)O)C(=O)N[C@@H](CCCCN)C(=O)N[C@@H](CCCCNC(=O)COCCOCCNC(=O)COCCOCCNC(=O)CC[C@H](NC(=O)CCCCCCCCCCCCCCCCCCC(=O)O)C(=O)O)C(=O)N[C@@H](Cc1c[nH]cn1)C(=O)N[C@@H](CCC(N)=O)C(=O)NC(C)(C)C(=O)N[C@@H](CCC(=O)O)C(=O)N[C@@H](Cc1ccccc1)C(=O)N[C@H](C(=O)N[C@@H](CC(N)=O)C(=O)N[C@@H](Cc1c[nH]c2ccccc12)C(=O)N[C@@H](CC(C)C)C(=O)N[C@@H](CC(C)C)C(=O)N[C@@H](C)C(=O)NCC(=O)NCC(=O)N1CCC[C@H]1C(=O)N[C@@H](CO)C(=O)N[C@@H](CO)C(=O)NCC(=O)N[C@@H](C)C(=O)N1CCC[C@H]1C(=O)N1CCC[C@H]1C(=O)N1CCC[C@H]1C(=O)N[C@@H](CO)C(N)=O)C(C)C [Example 26] (H-Y[Aib]EGT[αMePhe(2-F)]ISDYSIALDKK([AEEA-AEEA-γGlu-C20 diacid])HQ[Aib]EFVNWLLAGGPSSGAPPPS-NH2)	74.1
CC[C@H](C)[C@H](NC(=O)[C@H](CCCN)NC(=O)[C@H](CC(=O)O)NC(=O)[C@H](CC(C)C)NC(=O)[C@](C)(CC(C)C)NC(=O)[C@@H](NC(=O)[C@H](CO)NC(=O)[C@H](Cc1ccc(O)cc1)NC(=O)[C@H](CC(=O)O)NC(=O)[C@H](CO)NC(=O)[C@@H](NC(=O)[C@H](Cc1ccccc1)NC(=O)[C@@H](NC(=O)CNC(=O)[C@H](CCC(=O)O)NC(=O)C(C)(C)NC(=O)[C@@H](N)Cc1ccc(O)cc1)[C@@H](C)O)[C@@H](C)CC)[C@@H](C)CC)C(=O)N[C@@H](Cc1c[nH]cn1)C(=O)N[C@@H](CCC(N)=O)C(=O)NC(C)(C)C(=O)N[C@@H](CCC(=O)O)C(=O)N[C@@H](Cc1ccccc1)C(=O)N[C@H](C(=O)N[C@@H](CCC(=O)O)C(=O)N[C@@H](Cc1ccc(O)cc1)C(=O)N[C@@H](CCCCNC(=O)COCCOCCNC(=O)COCCOCCNC(=O)CC[C@H](NC(=O)CCCCCCCCCCCCCCCCCCC(=O)O)C(=O)O)C(=O)N[C@@H](CC(C)C)C(=O)N[C@@H](CCC(=O)O)C(=O)N[C@@H](C)C(=O)NCC(=O)N1CCC[C@H]1C(=O)N[C@@H](CO)C(=O)N[C@@H](CO)C(=O)NCC(=O)N[C@@H](C)C(=O)N1CCC[C@H]1C(=O)N1CCC[C@H]1C(=O)N1CCC[C@H]1C(=O)N[C@@H](CO)C(N)=O)C(C)C [Example 104] (H-Y[Aib]EGTFISDYSI[αMeL]LD[Orn]IHQ[Aib]EFVEYK([AEEA-AEEA-γGlu-C20 diacid])LEAGPSSGAPPPS-NH2)	> 960
CC[C@H](C)[C@H](NC(=O)[C@H](CCCCN)NC(=O)[C@H](CC(=O)O)NC(=O)[C@H](CC(C)C)NC(=O)[C@](C)(CC(C)C)NC(=O)[C@@H](NC(=O)[C@H](CO)NC(=O)[C@H](Cc1ccc(O)cc1)NC(=O)[C@H](CC(=O)O)NC(=O)[C@H](CO)NC(=O)[C@@H](NC(=O)[C@H](Cc1ccccc1)NC(=O)[C@@H](NC(=O)CNC(=O)[C@H](CCC(=O)O)NC(=O)C(C)(C)NC(=O)[C@@H](N)Cc1ccc(O)cc1)[C@@H](C)O)[C@@H](C)CC)[C@@H](C)CC)C(=O)N[C@@H](Cc1c[nH]cn1)C(=O)N[C@@H](CCC(N)=O)C(=O)NC(C)(C)C(=O)N[C@@H](CC(=O)O)C(=O)N[C@@H](Cc1ccccc1)C(=O)N[C@H](C(=O)N[C@@H](CCC(=O)O)C(=O)N[C@@H](Cc1ccncc1)C(=O)N[C@@H](CCCCNC(=O)COCCOCCNC(=O)COCCOCCNC(=O)CC[C@H](NC(=O)CCCCCCCCCCCCCCCCC(=O)O)C(=O)O)C(=O)N[C@@H](CC(C)C)C(=O)N[C@@H](CCC(=O)O)C(=O)NCC(=O)NCC(=O)N1CCC[C@H]1C(=O)N[C@@H](CO)C(=O)N[C@@H](CO)C(=O)NCC(=O)N[C@@H](C)C(=O)N1CCC[C@H]1C(=O)N1CCC[C@H]1C(=O)N1CCC[C@H]1C(=O)N[C@@H](CO)C(N)=O)C(C)C [Example 110] (H-Y[Aib]EGTFISDYSI[αMeL]LDKIHQ[Aib]DFVE[4Pal]K([AEEA-AEEA-γGlu-C18 diacid])LEGGPSSGAPPPS-NH2)	> 960
CC[C@H](C)[C@H](NC(=O)[C@H](Cc1ccccc1)NC(=O)[C@@H](NC(=O)CNC(=O)[C@H](CCC(=O)O)NC(=O)C(C)(C)NC(=O)[C@@H](N)Cc1ccc(O)cc1)[C@@H](C)O)C(=O)N[C@@H](CO)C(=O)N[C@@H](CC(=O)O)C(=O)N[C@@H](Cc1ccc(O)cc1)C(=O)N[C@@H](CO)C(=O)N[C@H](C(=O)N[C@@](C)(CC(C)C)C(=O)N[C@@H](CC(C)C)C(=O)N[C@@H](CC(=O)O)C(=O)N[C@@H](CCCN)C(=O)N[C@@H](CCCCNC(=O)COCCOCCNC(=O)COCCOCCNC(=O)CC[C@H](NC(=O)CCCCCCCCCCCCCCCCC(=O)O)C(=O)O)C(=O)N[C@@H](Cc1c[nH]cn1)C(=O)N[C@@H](CCC(N)=O)C(=O)NC(C)(C)C(=O)N[C@@H](CC(=O)O)C(=O)N[C@@H](Cc1ccccc1)C(=O)N[C@H](C(=O)N[C@@H](CCC(=O)O)C(=O)N[C@@H](Cc1ccncc1)C(=O)N[C@@H](CC(C)C)C(=O)N[C@@H](CC(C)C)C(=O)N[C@@H](CCC(=O)O)C(=O)N[C@@H](C)C(=O)NCC(=O)N1CCC[C@H]1C(=O)N[C@@H](CO)C(=O)N[C@@H](CO)C(=O)NCC(=O)N[C@@H](C)C(=O)N1CCC[C@H]1C(=O)N1CCC[C@H]1C(=O)N1CCC[C@H]1C(=O)N[C@@H](CO)C(N)=O)C(C)C)[C@@H](C)CC [Example 87] (H-Y[Aib]EGTFISDYSI[αMeL]LD[Orn]K([AEEA-AEEA-γGlu-C18 diacid])HQ[Aib]DFVE[4Pal]LLEAGPSSGAPPPS-NH2)	576
CC[C@H](C)[C@H](NC(=O)[C@H](CCCCN)NC(=O)[C@H](CC(=O)O)NC(=O)[C@H](CC(C)C)NC(=O)[C@](C)(CC(C)C)NC(=O)[C@@H](NC(=O)[C@H](CO)NC(=O)[C@H](Cc1ccc(O)cc1)NC(=O)[C@H](CC(=O)O)NC(=O)[C@H](CO)NC(=O)[C@@H](NC(=O)[C@H](Cc1ccccc1)NC(=O)[C@@H](NC(=O)CNC(=O)[C@H](CCC(=O)O)NC(=O)C(C)(C)NC(=O)[C@@H](N)Cc1ccc(O)cc1)[C@@H](C)O)[C@@H](C)CC)[C@@H](C)CC)C(=O)N[C@@H](Cc1c[nH]cn1)C(=O)N[C@@H](CCC(N)=O)C(=O)NC(C)(C)C(=O)N[C@@H](CCC(=O)O)C(=O)N[C@@H](Cc1ccccc1)C(=O)N[C@H](C(=O)N[C@@H](CCC(=O)O)C(=O)N[C@@H](Cc1ccncc1)C(=O)N[C@@H](CCCCNC(=O)COCCOCCNC(=O)COCCOCCNC(=O)CC[C@H](NC(=O)CCCCCCCCCCCCCCCCCCC(=O)O)C(=O)O)C(=O)N[C@@H](CC(C)C)C(=O)N[C@@H](CCC(=O)O)C(=O)NCC(=O)NCC(=O)N1CCC[C@H]1C(=O)N[C@@H](CO)C(=O)N[C@@H](CO)C(=O)NCC(=O)N[C@@H](C)C(=O)N1CCC[C@H]1C(=O)N1CCC[C@H]1C(=O)N1CCC[C@H]1C(=O)N[C@@H](CO)C(N)=O)C(C)C [Example 100] (H-Y[Aib]EGTFISDYSI[αMeL]LDKIHQ[Aib]EFVE[4Pal]K([AEEA-AEEA-γGlu-C20 diacid])LEGGPSSGAPPPS-NH2)	572
CC[C@H](C)[C@H](NC(=O)[C@H](CO)NC(=O)[C@H](Cc1ccc(O)cc1)NC(=O)[C@H](CC(=O)O)NC(=O)[C@H](CO)NC(=O)[C@@H](NC(=O)[C@](C)(CC)NC(=O)[C@@H](NC(=O)CNC(=O)[C@H](CCC(=O)O)NC(=O)C(C)(C)NC(=O)[C@@H](N)Cc1ccc(O)cc1)[C@@H](C)O)[C@@H](C)CC)C(=O)N[C@@](C)(CC(C)C)C(=O)N[C@@H](CC(C)C)C(=O)N[C@@H](CC(=O)O)C(=O)N[C@@H](CCCCN)C(=O)N[C@@H](CCCCNC(=O)COCCOCCNC(=O)COCCOCCNC(=O)CC[C@H](NC(=O)CCCCCCCCCCCCCCCCCCC(=O)O)C(=O)O)C(=O)N[C@@H](Cc1c[nH]cn1)C(=O)N[C@@H](CCC(N)=O)C(=O)NC(C)(C)C(=O)N[C@@H](CC(=O)O)C(=O)N[C@@H](Cc1ccccc1)C(=O)N[C@H](C(=O)N[C@@H](CCC(=O)O)C(=O)N[C@@H](Cc1ccncc1)C(=O)N[C@@H](CC(C)C)C(=O)N[C@@H](CC(C)C)C(=O)N[C@@H](CCC(=O)O)C(=O)NCC(=O)NCC(=O)N1CCC[C@H]1C(=O)N[C@@H](CO)C(=O)N[C@@H](CO)C(=O)NCC(=O)N[C@@H](C)C(=O)N1CCC[C@H]1C(=O)N1CCC[C@H]1C(=O)N1CCC[C@H]1C(=O)N[C@@H](CO)C(N)=O)C(C)C [Example 74] (H-Y[Aib]EGT[Iva]ISDYSI[αMeL]LDKK([AEEA-AEEA-γGlu-C20 diacid])HQ[Aib]DFVE[4Pal]LLEGGPSSGAPPPS-NH2)	511
